{"source": "patent EP0642343B1", "about": "“Acridine carboxamides for the treatment of cancer” (XENOVA LIMITED, priority 1992, dated 1993)", "key": {"[1]": {"system": "advanced colon 38 tumours", "test": "Tumour growth delay, advanced subcutaneous colon 38 tumours in mice", "type": "in vivo", "experimental": "(§1) Colon 38 carcinoma was obtained from the Mason Research Institute (Worchester, MA, USA) and was grown in BDF1 hosts. Tumour fragments (1 mm^3) were implanted subcutaneously in anaesthetised mice. Tumours had grown to the appropriate size 9 days after implantation. A melanoma tumour line (WADH) was developed in the Cancer Research Laboratory. Tumour cells were grown in culture and 1 x 10^6 cells were implanted intradermally into the flank of nude (C57BI/J genetic background) mice. Mice were grown under sterile surroundings until tumours were of appropriate size.\n(§2) Tumours were measured 3x (colon 38) or 2x (xeno-graft) weekly with callipers and tumour volumes calculated as 0.52a^2b, where a and b were the minor and major tumour axes. Tumour growth delays were measured at a time when tumour volumes of treated and control animals had increased by 4-fold.\nThe effects of five compounds, • (i) DACA • (ii) N-[2-(dimethylamino)ethyl]-9-methoxyphen-azine-1-carboxamide (compound 28 of J. Med. Chem., 1987, 30, 843-851), • (iii) N-[2-(dimethylamino) ethyl]-2-phenylquino-line-8-carboxamide (compound 6 of J. Med. Chem. 1988, 31, 1048-1052), • (iv) N-[2-(dimethylamino)ethyl]-2-(4-pyridyl)-guinoline-8-carboxamide (compound 18 of J. Med. Chem., 1989, 32, 396-401), and • (v) N-[2-(dimethylamino)ethyl]-9-bromo-dibenzo-[1,4]-dioxin-1-carboxamide (compound 20 of J. Med. Chem. 1992, 35, 258-266) on the growth of advanced colon 38 tumours in mice was investigated by implanting tumour fragments subcutaneously and allowing them to grow until they had reached a diameter of 5-8 mm."}, "[2]": {"system": "human melanoma cell line designated WADH", "test": "Tumour growth delay, human melanoma xenograft in nude mice", "type": "in vivo, nude (athymic) mice", "settings": "tumours 4-7 mm; ip divided dose 2 x 100 mg/kg at 0 and 60 min, repeated after 7 days", "experimental": "as §1, §2\nA further experiment was carried out using human melanoma line, implanted subcutaneously in nude (athymic) mice using an inoculation of one million cells of a human melanoma cell line designated WADH. Treatment was started when the tumours were 4-7 mm in diameter. DACA was administered ip as a divided dose (2 x 100 mg/kg body weight at 0 and 60 min) and a second similar administra-tion (2 x 100 mg/kg) was given after 7 days. A growth delay of 30 days was obtained (Figure 6)."}, "[3]": {"system": "P388 murine leukaemia (P/ACTD)", "settings": "in vitro tests; reported by Schneider et al., Eur. J. Cancer Clin. Oncol. 1988; cited from earlier work"}, "LA": {"system": "LA", "test": "Resistance factor, drug-resistant Jurkat leukaemia subline", "type": "cell-based, human", "settings": "LA (from L by exposure to amsacrine); ratio of IC50 resistant line / parent line", "experimental": "(§3) Tumour cell lines were cultured in 96-well plates. Growth of NCI cell lines was assessed using sulpho-rhodamine B staining (Skehan P., et al., J. Natl. Cancer Inst. 1990, 82, 1107-1112), that of the leukaemia lines with (4,5-dimethylthiazole-2-yl)-2,5-diphenyltetrazolium (MTT) staining (Mosmann T., J. Immun. Methods 1983, 65, 55-63) and that of the primary human tumour material by ^3H-thymidine incorporation (Marshall E.S., et al., J. Natl. Cancer Inst. 1992, 84, 341-344). Primary tumour material was cultured in 96-well plates in which the wells were coated with agarose to inhibit selectively the growth of normal cells. (Marshall E.S., et al., J. Natl. Cancer Inst. 1992, 84, 341-344). Primary cultures were incubated at 37°C in sealed perspex boxes containing a humidified atmosphere of 5% CO2 and 5% O2 in nitrogen for 7 days. 5-Methyl-[^3H]-thymidine (20 Ci.mmol^-1; 0.04 µCi per well), thymidine and 5-fluorodeoxyuridine (each at final concentrations of 0.5 µM) were added in medium to cultures (20 µl per well) 24 h before terminating the cultures. Cells were aspirated on to glass fibre filters using a multiple automated sample harvester (LKB Wallac OY Beta Harvester). The filter discs were washed for 15 seconds with water, dried, and the amount of tritium retained quantified by liquid scintillation.\n(§4) IC50 values were defined as in Paull K.D., et al., J. Natl. Cancer Inst. 1989, 81:1088-1092, where growth, as indicated by staining or thymidine incorporation, corresponded to 50% of that of the control cultures. […] Variances of DELTA values were expressed as standard deviations in log10 units. Comparison of DELTA values was made using Pearson correlation coefficients. Resistance factors were defined as the ratios of IC50 values between the resistant line and the parent line. Statistical evaluation was performed either with NCI programmes, with RS/1 software (BBN Research Systems, Cambridge, MA, USA), or with Sigmaplot (Jandel Scientific, San Rafael, CA, USA).\n(§5) The effect of DACA on the growth of cultured cells was assessed by continuous drug exposure. […] Four multidrug-resistant cell lines, developed from JL and JB1 by in vitro exposure to increasing concentrations of doxorubicin (LD and B1D) or amsacrine (LA and B1A) (Finlay G.J., et al., J. Natl. Cancer Inst. 1990, 82, 662-667, Snow K., et al., Br. J. Cancer 1991, 63, 17-28) were tested.\n(§6) DACA was compared with six other drugs including four topo II poisons, doxorubicin, mitozantrone, etopo-side and amsacrine. […]"}, "B1D": {"system": "B1D", "test": "Resistance factor, drug-resistant Jurkat leukaemia subline", "type": "cell-based, human", "settings": "B1D (from B1 by exposure to doxorubicin); ratio of IC50 resistant line / parent line", "experimental": "as §3, §4, §5, §6"}, "B1A": {"system": "B1A", "test": "Resistance factor, drug-resistant Jurkat leukaemia subline", "type": "cell-based, human", "settings": "B1A (from B1 by exposure to amsacrine); ratio of IC50 resistant line / parent line", "experimental": "as §3, §4, §5, §6"}, "LD": {"system": "LD", "test": "Resistance factor, drug-resistant Jurkat leukaemia subline", "type": "cell-based, human", "settings": "LD (from L by exposure to doxorubicin); ratio of IC50 resistant line / parent line", "experimental": "as §3, §4, §5, §6"}, "human cell lines": {"system": "human cell lines", "test": "Cytotoxicity under continuous drug exposure, mean over human cell lines", "type": "cell-based", "settings": "continuous drug exposure over approx. 5 cell doubling times, read-out: mean IC50 value for human cell lines", "experimental": "The latter value compared with 2 µM for the 4-pyridyl-quinoline analogue, 0.76 µM for amsacrine, 0.1 µM for the amsacrine analogue 4'-(9-[4-[N-methylcarboxamido]-5-methyl]-acridinylamino)-methanesulphon-m-anisidide (\"CI-921\") and 81 µM for etoposide."}}, "note": "pIC50: −log10 of the molar value. Several values for one entry are separate records, joined by “and”; a condition that tells them apart may be missing. Identical values can stand only once.", "data": [{"smiles": "CN(C)CCNC(=O)c1cccc2cc3ccccc3nc12", "note": "[DACA, N-[2-(dimethylamino)ethyl]acridine-4-carboxamide]", "values": [{"measurement": "Growth delay", "setting": "[1]; 100mg/kg each injection, ip, 2 doses, 0, 60 min, listed as (i)", "result": "10 days and 12 days"}, {"measurement": "Growth delay", "setting": "[1]; 4 injections at 30 minute intervals, 180 + 120 + 120 + 120 µmol/kg, q7 days x 3", "result": 21, "unit": "days"}, {"measurement": "Growth delay", "setting": "[1]; day 11 after implantation, 3 injections at 4-day intervals", "result": 4, "unit": "days"}, {"measurement": "Growth delay", "setting": "[1]; i.p. single maximum tolerated dose 150 mg/kg body weight, Figure 5", "result": 5, "unit": "days"}, {"measurement": "Growth delay", "setting": "[1]; repetition of divided doses (200 mg/kg), Figure 5", "result": 23, "unit": "days"}, {"measurement": "Growth delay", "setting": "[1]; total dose 100 (mg/kg) ip, single dose (SD)", "result": 4, "unit": "days"}, {"measurement": "Growth delay", "setting": "[1]; total dose 150 ip, 2 doses, 0, 60 min", "result": 5, "unit": "days"}, {"measurement": "Growth delay", "setting": "[1]; total dose 150 ip, SD", "result": 5, "unit": "days"}, {"measurement": "Growth delay", "setting": "[1]; total dose 150x3 ip, SD every week x 3", "result": 7, "unit": "days"}, {"measurement": "Growth delay", "setting": "[1]; total dose 200 ip, 2 doses, 0, 30 min", "result": 7, "unit": "days"}, {"measurement": "Growth delay", "setting": "[1]; total dose 200 ip, 2 doses, 0, 60 min (2 expts)", "result": "10 days and 12 days"}, {"measurement": "Growth delay", "setting": "[1]; total dose 200 ip, 2 doses, 0, 24 hours", "result": 6, "unit": "days"}, {"measurement": "Growth delay", "setting": "[1]; total dose 200 ip, 4 doses, 0, 30, 60, 90 min (65 + 45 + 45 + 45 mg/kg)", "result": 6, "unit": "days"}, {"measurement": "Growth delay (days)", "setting": "[1]; total dose 200 ip, SD", "result": "toxic"}, {"measurement": "Growth delay", "setting": "[1]; total dose 200 iv, 1 hour infusion", "result": 7, "unit": "days"}, {"measurement": "Growth delay", "setting": "[1]; total dose 200 iv, 3 hour infusion", "result": 6.5, "unit": "days"}, {"measurement": "Growth delay", "setting": "[1]; total dose 200x3 ip, (4 doses, 0, 30, 60, 90)x3", "result": 23, "unit": "days"}, {"measurement": "Growth delay", "setting": "[1]; tumour 5-8 mm, after adjustment of the administration schedule", "result": "more than 21 days"}, {"measurement": "Growth delay", "setting": "[1]; tumour 5-8 mm, intermittent schedule 270 mg/kg q7 days x 3", "result": 3, "unit": "days"}, {"measurement": "Growth delay", "setting": "[1]; tumour 5-8 mm, intermittent schedule 400 mg/kg q7 days x 3", "result": 7, "unit": "days"}, {"measurement": "Growth delay", "setting": "[2]", "result": 30, "unit": "days"}, {"measurement": "cross-resistance of P/ACTD cells", "setting": "[3]", "result": "no cross-resistance"}, {"measurement": "Resistance factors", "setting": "LA", "result": 2.0}, {"measurement": "Resistance factors", "setting": "B1D", "result": 1.9}, {"measurement": "Resistance factors", "setting": "B1A", "result": 3.9}, {"measurement": "Resistance factors", "setting": "LD", "result": 2.5}, {"measurement": "pIC50", "setting": "human cell lines", "result": 5.89}]}]}
